In patent US20080242688A1, “Method 741” (ASTRAZENECA AB, priority 2007, published 2008):
“And” between values parts separate entries of the source, which are not always exact repeats. Equal values may be shown once.

How the values were obtained:
ferrets = assay: Emetic potential in ferrets; type: in vivo; conditions: ferret
Experimental: The emetic potential of AZD0328 was investigated in ferrets (n=6-8/dose) following a single oral dose of vehicle or AZD0328 (Table 3). Videotape recordings were used for observation of the animals up to 4 h after dose for quantitation and timing of emetic behaviours, characterised as retches (abdominal contractions), vomits and wet-dog shakes.

[1] = Allometric scaling / predicted human pharmacokinetics
[2] = Single dose PK/TK, minipig; type: in vivo
Text: (§1) This section provides a summary of the pharmacokinetic and metabolism properties of AZD0328 derived from in vivo studies. […] The derived PK/TK parameters from these studies are presented in Table 4 for single dose studies (DMR4, 0619LR, 20030191PCR, DMO16, DMB10, DMW12, 50190, 0190DD and 03.330/1), and are presented in Table 5 multiple dose PK/TK studies (DMR4, 0612AR, DMB15, 50190, 0190DD and 0295AD).

[3] = Pentylenetetrazole-induced seizure threshold; conditions: in vivo; rat, oral; read-out: NOAEL, proconvulsant activity
Experimental: AZD0328 was assessed for its ability to influence the threshold to clonic convulsions caused by an intravenous infusion of pentylenetetrazole (PTZ) in rats (Table 3).

Single dose PK/TK, dog = type: in vivo; conditions: for AUC / Cmax / Tmax: dog, in vivo, po
Text: as §1

Multiple dose PK/TK, rat = type: in vivo; conditions: rat, in vivo, po
Text: as §1

[4] = allometric scaling of in vivo data from rat and monkey
[5] = both sexes, Gottingen, in vivo, minipig 2M+2F, 50190, single oral 73.1 mg/kg (338 μmol/kg), capsules, fasted
[6] = both sexes, Gottingen, in vivo, minipig 2M+2F, 50190, single oral 563 mg/kg (2602 μmol/kg), capsules, fasted
[7] = male, Gottingen, in vivo, minipig 3M, DMW12, single oral 16.9 mg/kg (78.1 μmol/kg), solution, fed
[8] = both sexes, 1.08 mg/kg, dog 2F+2M, 0190DD, oral 1.08 mg/kg (5 μmol/kg) split in two 6 h apart, capsules, fasted
[9] = both sexes, 1.08 mg/kg, dog 2F+2M, 0190DD, oral 1.08 mg/kg (5 μmol/kg) split in two 6 h apart, capsules, fed
[10] = both sexes, 1.08 mg/kg, dog 2F+2M, 0190DD, oral 1.08 mg/kg (5 μmol/kg) split in two 6 h apart, solution, fasted
[11] = both sexes, 2.16 mg/kg, rat 1F+1M, DMR4, 2.16 mg/kg (10 μmol/kg), day 1
[12] = both sexes, 2.16 mg/kg, rat 1F+1M, DMR4, 2.16 mg/kg (10 μmol/kg), day 7
[13] = female, 2.16 mg/kg, rat 4F, 0612AR, 2.16 mg/kg (10 μmol/kg), day 1
[14] = female, 2.16 mg/kg, rat 4F, 0612AR, 2.16 mg/kg (10 μmol/kg), day 30
[15] = female, 15.1 mg/kg, rat 4F, 0612AR, 15.1 mg/kg (70 μmol/kg), day 1
[16] = female, 15.1 mg/kg, rat 4F, 0612AR, 15.1 mg/kg (70 μmol/kg), day 30
[17] = female, 64.9 mg/kg, rat 4F, 0612AR, 64.9 mg/kg (300 μmol/kg), day 1
[18] = female, 64.9 mg/kg, rat 4F, 0612AR, 64.9 mg/kg (300 μmol/kg), day 30
[19] = male, 2.16 mg/kg, rat 4M, 062AR, 2.16 mg/kg (10 μmol/kg), day 30

c1cnc2c(c1)C[C@@]1(CN3CCC1CC3)O2 [AZD0328, (R)-Spiro[1-azabicyclo[2.2.2]octane-3,2′(3′H)-furo[2,3-b]pyridine]]
dose with statistically significant difference from vehicle for retches (ferrets; oral): 5.6 mg/kg | emetic responses (ferrets; oral gavage 5.6, 16.9 or 56.2 mg/kg): emetic responses were present at all doses | predicted human Vdss [1, 4]: 2.7 L/kg | predicted human systemic clearance [1, 4]: 5.9 mL/min/kg | human predicted half-life ([1]; one-compartment pharmacokinetic model): 5.3 h | AUC [2, 5]: 3140 ng·h/mL and 14.5 µM·h | Cmax [2, 5]: 379 ng/mL and 1.75 µM | Tmax [2, 5]: 2 to 6 h | AUC [2, 6]: 18200 ng·h/mL and 84.2 µM·h | Cmax [2, 6]: 1910 ng/mL and 8.84 µM | Tmax [2, 6]: 12 h | clearance ([2]; male, Gottingen, in vivo, minipig 3M, DMW12, iv 8.5 mg/kg (39.3 μmol/kg)): 35.5 mL/min/kg | half-life ([2]; male, Gottingen, in vivo, minipig 3M, DMW12, iv 8.5 mg/kg (39.3 μmol/kg), read-out: T½ (converted)): 3.71 ± 1.72 h | Vd ([2]; male, Gottingen, in vivo, minipig 3M, DMW12, iv 8.5 mg/kg (39.3 μmol/kg), read-out: Vss): 11.1 ± 4.2 L/kg | AUC [2, 7]: 404 ng·h/mL and 1.87 µM·h | Cmax [2, 7]: 81.3 ng/mL and 376 nM | Tmax [2, 7]: 1 to 4 h | F ([2]; minipig 3M, DMW12, oral 16.9 mg/kg vs iv 8.5 mg/kg): 5.19 ± 2.22% | NOAEL [3]: 64.9 mg/kg | AUC (Single dose PK/TK, dog; [8]): 68.1 ng·h/mL and 0.315 µM·h | Cmax (Single dose PK/TK, dog; [8]): 19.2 ng/mL and 89 nM | Tmax (Single dose PK/TK, dog; [8]): 1 to 3 h | AUC (Single dose PK/TK, dog; [9]): 177 ng·h/mL and 0.818 µM·h | Cmax (Single dose PK/TK, dog; [9]): 26.9 ng/mL and 124 nM | Tmax (Single dose PK/TK, dog; [9]): 0.5 to 6 h | AUC (Single dose PK/TK, dog; [10]): 104 ng·h/mL and 0.483 µM·h | Cmax (Single dose PK/TK, dog; [10]): 33.1 ng/mL and 153 nM | Tmax (Single dose PK/TK, dog; [10]): 0.5 h | F (Single dose PK/TK, dog; dog 4M, 0279ZD, single oral 17.3 mg/kg (80 μmol/kg)): 0.146 ± 0.043% | F (Single dose PK/TK, dog; dog 4M, 0279ZD, single oral 34.6 mg/kg (160 μmol/kg)): 0.239 ± 0.099% | AUC (Single dose PK/TK, dog; male, 17.3 mg/kg, dog 4M, 0279ZD, single oral 17.3 mg/kg (80 μmol/kg)): 2530 ng·h/mL and 11.7 µM·h | AUC (Single dose PK/TK, dog; male, 34.6 mg/kg, dog 4M, 0279ZD, single oral 34.6 mg/kg (160 μmol/kg)): 8280 ng·h/mL and 38.3 µM·h | AUC (Multiple dose PK/TK, rat; [11]): 699 ng·h/mL to 861 ng·h/mL and 3.23 µM·h to 3.98 µM·h | Cmax (Multiple dose PK/TK, rat; [11]): 251 ng/mL to 344 ng/mL and 1.16 µM to 1.59 µM | Tmax (Multiple dose PK/TK, rat; [11]): 0.5 to 1 h | AUC (Multiple dose PK/TK, rat; [12]): 2.77 µM·h to 3.96 µM·h and 599 ng·h/mL to 857 ng·h/mL | Cmax (Multiple dose PK/TK, rat; [12]): 212 to 324 ng/mL | Cmax at 7 day (Multiple dose PK/TK, rat; [12]): 981 to 1500 nM | Tmax (Multiple dose PK/TK, rat; [12]): 0.5 h | AUC (Multiple dose PK/TK, rat; [13]): 916 ng·h/mL and 7.25 µM·h | Cmax at 1 day (Multiple dose PK/TK, rat; [13]): 236 ng/mL and 1.87 µM | Tmax at 1 day (Multiple dose PK/TK, rat; [13]): 1 h | AUC (Multiple dose PK/TK, rat; [14]): 858 ng·h/mL and 6.79 µM·h | Cmax at 30 day (Multiple dose PK/TK, rat; [14]): 220 ng/mL and 1.74 µM | Tmax at 30 day (Multiple dose PK/TK, rat; [14]): 1 h | AUC (Multiple dose PK/TK, rat; [15]): 8120 ng·h/mL and 64.3 µM·h | Cmax at 1 day (Multiple dose PK/TK, rat; [15]): 984 ng/mL and 7.79 µM | Tmax at 1 day (Multiple dose PK/TK, rat; [15]): 1 h | AUC (Multiple dose PK/TK, rat; [16]): 9600 ng·h/mL and 76 µM·h | Cmax at 30 day (Multiple dose PK/TK, rat; [16]): 1420 ng/mL and 11.2 µM | Tmax at 30 day (Multiple dose PK/TK, rat; [16]): 1 h | AUC (Multiple dose PK/TK, rat; [17]): 40400 ng·h/mL and 320 µM·h | Cmax (Multiple dose PK/TK, rat; [17]): 2480 ng/mL and 19.6 µM | Tmax (Multiple dose PK/TK, rat; [17]): 1 to 3 h | AUC (Multiple dose PK/TK, rat; [18]): 42100 ng·h/mL and 333 µM·h | Cmax (Multiple dose PK/TK, rat; [18]): 2930 ng/mL and 23.2 µM | Tmax (Multiple dose PK/TK, rat; [18]): 1 h | AUC (Multiple dose PK/TK, rat; [19]): 412 ng·h/mL and 3.26 µM·h | Cmax at 30 day (Multiple dose PK/TK, rat; [19]): 154 ng/mL and 1.22 µM
